The source of these data is patent US11548925B2, “CACNA1H-derived tumor antigen polypeptide and use thereof” (Genoimmune Therapeutics Co., Ltd., priority 2016, dated 2023).

For assay [1], the system named is H2087-TLISSLMPI (SEQ ID NO: 2) subcutaneous tumor. The assay is described as follows: Peptide + Freund's adjuvant vaccine in H2087-[…] subcutaneous tumor model. The conditions noted are these: peptide 100 μg/mouse + Freund's adjuvant s.c., 4 immunizations; vs adjuvant alone and wild-type peptide. It is filed as in vivo, NOD/SCID mice. The protocol: 600-900 ml of anticoagulated peripheral blood was collected from healthy volunteers for isolating peripheral blood mononuclear cells (PBMCs) via Ficoll. Cells were collected for use. 2×10^7 PBMCs per 0.5 ml was intraperitoneally injected into each of 300 NOD SCID mice without immune leakage to perform human immune reconstitution in NOD SCID mice. After 4 weeks, the mice were selected to be inoculated with the human lung cancer cell line.
The human non-small cell lung adenocarcinoma cell line H2087-[…] (SEQ ID NO: 2) as established in Example 7 was cultured in DMEM medium containing 10% fetal bovine serum, 100 U/mL penicillin and 100 U/mL streptomycin in an incubator at 37° C., 5% CO2. H2087-[…] (SEQ ID NO: 2) tumor cells were collected, centrifuged at 1500 rpm for 5 min, and washed 3 times with sterile physiological saline. The tumor cells were diluted appropriately. […] The long diameter a and the short diameter b of the tumor were measured with a vernier caliper every 2-3 days and the size of the tumor was calculated as a*b*b/2. The mice and tumors were weighed and recorded every day. […] The tumor volume and the survival rate of mice were recorded every 2 days.
The H2087-[…] […] The longest diameter (a) and the shortest diameter (b) of a tumor were measured with a vernier caliper every 2 days. Tumor volume was calculated as: ½×length×width^2. […]

Assay [2] relates to CD8+ T cells. The assay is described as follows: ELISPOTs detection of IFN-γ secretion by peptide-specific CD8+ T cells. The assay is classed as cell-based, human. An excerpt:
In this example, a ELISPOTs detection kit (Cat. No.: 3420-4AST-10, MABTECH) was used to verify the activation of an immune response of CD8+ T cells by the peptides of the present invention.
Principle of the ELISPOTs detection method is as follows: CD8+ T cells can specifically recognize the complex of HLA-A0201 and a peptide. The population of T cells recognizing the complex of the peptide and HLA-A0201 is varying, depending on the peptide sequence. Since T2 cells express HLA-A0201, CD8+ T cells can specifically recognize the T2 cells loaded with a peptide. After specific recognition of the complex of HLA-A0201 and the peptide, peptide-specific CD8+ T cells can be activated again to secrete IFN-γ interferon. The IFN-γ interferon secreted by the activated CD8+ T cells can be captured by antibodies on the ELISPOTs plate. Finally, the enzyme-conjugated antibody that recognizes IFN-γ can degrade the substrate through the enzyme conjugated thereto and develop color, eventually producing spots. The number of spots represents the number of cells that are activated to secrete IFN-γ interferon.
The cultured cells from Example 3 were added, along with T2 cells loaded with the mutant peptide […] (SEQ ID NO: 2) of the present invention and the wild-type peptide […] (SEQ ID NO: 1), respectively, into ELISPOTs plates, and cultured for 20 h, and then a ELISPOTs detection was performed (see the kit instruction). Finally, the spots produced by the ELISPOTs detection were counted.
The peptide was determined to have immunogenicity when the number of spots of the tested peptide/the number of spots of an unrelated peptide>2; that is, if the number of spots caused by the tested peptide is more than twice than that of an unrelated peptide, the tested peptide is determined to have immunogenicity.

For “TLISSLMPI [tumor antigen peptide from CACNA1H mutation, position 1428 arginine to methionine]”, in assay [1], the “Survival period of mice” value is given as “prolonged the survival period of mice” and the Tumor growth result is listed as “effectively inhibited tumor growth”. Further, the “Conclusion (immunogenicity)” value in assay [2] (ELISPOTs) was “immunogenic”. The “Number of spots in the mutant peptide group” value in assay [2] (T cells activated by the listed peptide, T2 cells loaded with TLISSLMPI, 20 h) is recorded as 306. Besides, the “Number of spots in the wild-type peptide group” value in assay [2] (T cells activated by the listed peptide, T2 cells loaded with TLISSLRPI, 20 h) stood at 33.
